From patent US20240425523A1, “Compounds for the Degradation of EGFR Kinase” (Beigene Switzerland GMBH, priority 2023, published 2024)

Experiments:
Assay type in all cases: cell-based
[1] = target: T1, EGFR L858R (BaF3-L858R cells) (Homo sapiens, UniProt P00533, L858R); experiment: Cell degradation of EGFR, HTRF assay, BaF3-L858R cells; details: 16 h treatment; for DC50: EGFR degradation; for Dmax: maximum percentage of degradation
T1 construct: host or cells: BaF3
In short: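 EGFR L858R levels measured by HTRF antibody pair in lysed BaF3-L858R cells after 16 h compound exposure (8-point 5-fold series from 10 uM final, 37° C). Degradation is relative to DMSO-only cells; DC50 fitted with Hill equation, Dmax taken as the largest percent loss.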

[2] = target: p-EGFR Del19/C797S (H1975-clone #23 cells) (Homo sapiens, UniProt P00533); experiment: Cell p-EGFR inhibition assay, HTRF, H1975-clone#23 (DEL19/C797S) cells; details: 16 h treatment; for Imax (%): maximum percentage of pEGFR inhibition; for IC50: pEGFR inhibition
In short: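 Phospho-EGFR read by overnight HTRF on lysates, normalized to DMSO-treated high control; IC50, Hill slope and Imax fitted. Compounds were applied for 16 h (10 uM top, 5-fold steps, 8 doses) to an H1975 single clone carrying only exogenous Del19/C797S EGFR after sgRNA knockout of endogenous copies.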

[3] = target: T2, p-EGFR L858R (BaF3-L858R cells) (Homo sapiens, UniProt P00533, L858R); experiment: Cell p-EGFR inhibition assay, HTRF, BaF3-L858R cells; details: 16 h treatment; for Imax (%): maximum percentage of pEGFR inhibition; for IC50: pEGFR inhibition
T2 construct: host or cells: BaF3
In short: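 BaF3-L858R cells treated 16 h at 37 °C, 5% CO2 with compound from 10 uM top, 5-fold dilutions, 8 doses, in 0.1% DMSO medium. Lysates read overnight by HTRF p-EGFR antibodies; IC50 fitted to four-parameter curve against DMSO high control.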

[4] = target: T3, EGFR-L858R/C797S (H1975-clone #8 cells) (Homo sapiens, UniProt P00533, C797S/L858R); experiment: Cell degradation of EGFR, HTRF assay, H1975-clone#8 (L858R/C797S) cells; details: 16 h treatment; for DC50: EGFR degradation; for Dmax: maximum percentage of degradation
T3 construct: expressed in transfected cells; host or cells: H1975 (endogenous EGFR knocked out, clone #8)

Row | SMILES | DC50 [1] [nM] | Dmax [1] [%] | Imax (%) [2] [%] | IC50 [2] [nM] | Imax (%) [3] [%] | IC50 [3] [nM] | DC50 [4] [nM] | Dmax [4] [%]
1 | Cc1cc2cc(n1)-c1c(C)nn(C)c1OC[C@H]1CC[C@H](C1)CN1/C(=N/C2=O)Nc2ccc(N(C)C3CCN(C4CCN(c5cc(F)c([C@H]6CCC(=O)NC6=O)c(F)c5)CC4)CC3)cc21 [Example 143, (R)-3-(2,6-difluoro-4-(4-(methyl((7^1R,7^3S,E)-1^1,1^3,2^6-trimethyl-3-oxo-5^2,5^3-dihydro-1^1H,5^1H-9-oxa-4-aza-5(2,1)-benzo[d]imidazola-2(2,4)-pyridina-1(4,5)-pyrazola-7(1,3)-cyclopentanacyclononaphane-5^6-yl)amino)-[1,4′-bipiperidin]-1-yl)phenyl)piperidine-2,6-dione] | 5.23 | 74.3 | 101.28 | 1.15 | 98.2 | 7.8 | 1.51 | 82
2 | Cc1cc2cc(n1)-c1c(C)nn(C)c1OC[C@H]1CC[C@H](C1)CN1/C(=N/C2=O)Nc2ccc(N3CCN([C@@H]4CCN(c5ccc(OC6CCC(=O)NC6=O)cc5)C[C@@H]4F)CC3)cc21 (stereo partly drawn) [Example 144, 3-(4-((3S,4R)-3-fluoro-4-(4-((7^1R,7^3S,E)-1^1,1^3,2^6-trimethyl-3-oxo-5^2,5^3-dihydro-1^1H,5^1H-9-oxa-4-aza-5(2,1)-benzo[d]imidazola-2(2,4)-pyridina-1(4,5)-pyrazola-7(1,3)-cyclopentanacyclononaphane-5^6-yl)piperazin-1-yl)piperidin-1-yl)phenoxy)piperidine-2,6-dione] | 3.1 | 73.6 | 100.78 | 0.97 | 98.7 | 5.5 | 0.938 | 84.8
3 | COC[C@H]1CN(c2ccc3c(c2)N2C[C@H]4CC[C@@H](COc5c(c(C)nn5C)-c5cc(cc(C)n5)C(=O)/N=C/2N3)C4)CCN1C1CCN(c2cc(F)c([C@H]3CCC(=O)NC3=O)c(F)c2)CC1 [Example 150, (R)-3-(2,6-difluoro-4-(4-((R)-2-(methoxymethyl)-4-((7S,7^3R,E)-1^1,1^3,2^6-trimethyl-3-oxo-5^2,5^3-dihydro-1^1H,5^1H-9-oxa-4-aza-5(2,1)-benzo[d]imidazola-2(2,4)-pyridina-1(4,5)-pyrazola-7(1,3)-cyclopentanacyclononaphane-5^6-yl)piperazin-1-yl)piperidin-1-yl)phenyl)piperidine-2,6-dione] | 8.77 | 90.5 | 100.12 | 2.16 | 91.27 | 72.1 | 7.29 | 85
4 | Cc1cc2cc(n1)-c1c(C)nn(C)c1OC[C@H]1CC[C@H](C1)CN1/C(=N/C2=O)Nc2ccc(N3CC(N(C)C4CCN(c5cc(F)c([C@H]6CCC(=O)NC6=O)c(F)c5)CC4)C3)cc21 [Example 153, (R)-3-(2,6-difluoro-4-(4-(methyl(1-((7^1R,7^3S,E)-1^1,1^3,2^6-trimethyl-3-oxo-5^2,5^3-dihydro-1^1H,5^1H-9-oxa-4-aza-5(2,1)-benzo[d]imidazola-2(2,4)-pyridina-1(4,5)-pyrazola-7(1,3)-cyclopentanacyclononaphane-5^6-yl)azetidin-3-yl)amino)piperidin-1-yl)phenyl)piperidine-2,6-dione] | 2.8 | 84.4 | 100.23 | 1.56 | 97.42 | 11.1 | 2.92 | 87

Molecules with a lower DC50 [1], results first:

Row | DC50 [1] [nM] | Dmax [1] [%] | Imax (%) [2] [%] | IC50 [2] [nM] | Imax (%) [3] [%] | IC50 [3] [nM] | DC50 [4] [nM] | Dmax [4] [%] | SMILES
5 | 1.68 | 90.6 | 99.54 | 1.02 | 95.95 | 5.03 | 2.62 | 88.5 | COC[C@@H]1CN(c2cc3c(cc2OC)N/C2=N\C(=O)c4cc(C)nc(c4)-c4c(C)nn(C)c4OC[C@H]4CC[C@H](C4)CN23)CCN1C1CCN(c2cc(F)c([C@H]3CCC(=O)NC3=O)c(F)c2)CC1 [Example 151, (R)-3-(2,6-difluoro-4-(4-((S)-4-((7^1R,7^3S,E)-5^5-methoxy-1^1,1^3,2^6-trimethyl-3-oxo-5^2,5^3-dihydro-1^1H,5^1H-9-oxa-4-aza-5(2,1)-benzo[d]imidazola-2(2,4)-pyridina-1(4,5)-pyrazola-7(1,3)-cyclopentanacyclononaphane-5^6-yl)-2-(methoxymethyl)piperazin-1-yl)piperidin-1-yl)phenyl)piperidine-2,6-dione]
6 | 1.19 | 86.6 | 100.06 | 2.46 | 95.61 | 15 | 1.28 | 88.7 | COc1cc2c(cc1N1CCN(C3CCN(c4cc(F)c([C@H]5CCC(=O)NC5=O)c(F)c4)CC3)CC1)N1C[C@@H]3CC[C@H](COc4c(c(C)nn4C)-c4cc(cc(C)n4)C(=O)/N=C/1N2)C3 [Example 152, (R)-3-(2,6-difluoro-4-(4-(4-((7^1R,7^3S,E)-5^5-methoxy-1^1,1^3,2^6-trimethyl-3-oxo-5^2,5^3-dihydro-1^1H,5^1H-9-oxa-4-aza-5(2,1)-benzo[d]imidazola-2(2,4)-pyridina-1(4,5)-pyrazola-7(1,3)-cyclopentanacyclononaphane-5^6-yl)piperazin-1-yl)piperidin-1-yl)phenyl)piperidine-2,6-dione]
7 | 2.11 | 87.4 | 100.92 | 0.789 | 95.16 | 4.81 | 2.73 | 88 | COC[C@H]1CN(c2ccc3c(c2)N2C[C@@H]4CC[C@H](COc5c(c(C)nn5CCO)-c5cc(cc(C)n5)C(=O)/N=C/2N3)C4)CCN1C1CCN(c2cc(F)c([C@H]3CCC(=O)NC3=O)c(F)c2)CC1 [Example 156, (R)-3-(2,6-difluoro-4-(4-((R)-4-((7^1R,7^3S,E)-1^1-(2-hydroxyethyl)-1^3,2^6-dimethyl-3-oxo-5^2,5^3-dihydro-1^1H,5^1H-9-oxa-4-aza-5(2,1)-benzo[d]imidazola-2(2,4)-pyridina-1(4,5)-pyrazola-7(1,3)-cyclopentanacyclononaphane-5^6-yl)-2-(methoxymethyl)piperazin-1-yl)piperidin-1-yl)phenyl)piperidine-2,6-dione]
8 | 2.03 | 85.8 | 100.52 | 1.1 | 96.89 | 2.87 | 1.88 | 88 | COC[C@@H]1CN(c2ccc3c(c2)N2C[C@@H]4CC[C@H](COc5c(c(C)nn5CCO)-c5cc(cc(C)n5)C(=O)/N=C/2N3)C4)CCN1C1CCN(c2cc(F)c([C@H]3CCC(=O)NC3=O)c(F)c2)CC1 [Example 157, (R)-3-(2,6-difluoro-4-(4-((S)-4-((7^1R,7^3S,E)-1^1-(2-hydroxyethyl)-1^3,2^6-dimethyl-3-oxo-5^2,5^3-dihydro-1^1H,5^1H-9-oxa-4-aza-5(2,1)-benzo[d]imidazola-2(2,4)-pyridina-1(4,5)-pyrazola-7(1,3)-cyclopentanacyclononaphane-5^6-yl)-2-(methoxymethyl)piperazin-1-yl)piperidin-1-yl)phenyl)piperidine-2,6-dione]
